In US20030153056A1, “Glycosyltransferase proteins” (priority 2000, published 2003):

Biological target: T1, Brainiac β1-3-N-acetylglucosaminyltransferase (Drosophila melanogaster, UniProt Q24157)
T1 construct: The full coding region of Brainiac was prepared by PCR using genomic DNA; made in house; host or cells: High Five insect cells (baculovirus vector pVL1393); microsomal fractions
T1 sequence (Q24157 1-325): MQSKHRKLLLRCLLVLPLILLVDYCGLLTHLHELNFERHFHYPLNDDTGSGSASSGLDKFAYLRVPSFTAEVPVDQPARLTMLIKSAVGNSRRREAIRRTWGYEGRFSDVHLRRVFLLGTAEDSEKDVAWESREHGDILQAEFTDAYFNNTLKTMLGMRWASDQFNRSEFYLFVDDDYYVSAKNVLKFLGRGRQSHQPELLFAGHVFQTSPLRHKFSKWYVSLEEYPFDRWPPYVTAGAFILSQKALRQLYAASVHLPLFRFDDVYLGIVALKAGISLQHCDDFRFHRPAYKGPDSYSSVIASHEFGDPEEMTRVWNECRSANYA
Experiment: Substrate specificities of Brainiac β1-3-N-acetylglucosaminyltransferase (acceptor panel, microsomal preparations)
Assay type: biochemical
Settings: microsomes of pVL-Brainiac infected High Five cells, background of irrelevant construct subtracted, donor UDP-GlcNAc

| Compound | Brainiac activity with substrate (substrate 2 mM) [nmol/h/mg] | Brainiac activity with substrate (substrate 20 mM) [nmol/h/mg] |
| --- | --- | --- |
| O=[N+]([O-])c1ccccc1O[C@@H]1O[C@H](CO)[C@H](O)[C@H](O)[C@H]1O [Galβ1-oNph] | 0.21 | 0.02 |
| C[C@@H]1OC(N)[C@@H](O)[C@H](O)[C@@H]1O (stereo partly drawn) [L-Fucosylamine] | 0.28 | 0.60 |
| OC[C@H]1O[C@H](OC[C@H]2O[C@H](OCc3ccccc3)[C@@H](O)[C@@H](O[C@H]3O[C@H](CO)[C@@H](O)[C@H](O)[C@@H]3O)[C@@H]2O)[C@@H](O)[C@@H](O)[C@@H]1O [Manα1-6(Manα1-3)Manα1-Bzl] | 0.01 | 0.08 |
| OC[C@H]1O[C@@H](O[C@H]2[C@H](O)[C@@H](O)[C@H](OCc3ccccc3)O[C@@H]2CO)[C@H](O)[C@@H](O)[C@H]1O [Galβ1-4Glcβ1-Bzl] | 0.48 | 1.69 |
| Cc1cc(=O)oc2cc(O[C@@H]3O[C@H](CO)[C@@H](O)[C@H](O)[C@@H]3O)ccc12 [Manβ1-MeUmb] | 5.25 | 6.18 |
| CC(=O)N[C@H]1[C@H](O[C@H]2[C@@H](O)[C@@H](CO)O[C@@H](O[C@H]3[C@H](O)[C@@H](O)C(O)O[C@@H]3CO)[C@@H]2O)O[C@H](CO)[C@@H](O[C@@H]2O[C@H](CO)[C@H](O)[C@H](O)[C@H]2O)[C@@H]1O (mixture of isomers) [lacto-N-neo-tetraose] | 0.03 | – |
| CO[C@H]1O[C@H](CO)[C@@H](O[C@H]2O[C@H](CO)[C@@H](O)[C@H](O)[C@@H]2O)[C@H](O)[C@@H]1O [Manα1-4Manα1-Me] | 0.00 | 0.00 |
| CO[C@H]1O[C@H](CO[C@H]2O[C@H](CO)[C@@H](O)[C@H](O)[C@@H]2O)[C@@H](O)[C@H](O)[C@@H]1O [Manα1-6Manα1-Me] | 0.02 | 0.05 |
| CO[C@H]1O[C@H](CO)[C@@H](O)[C@H](O)[C@@H]1O[C@@H]1O[C@H](CO)[C@@H](O)[C@H](O)[C@@H]1O [Manβ1-2Manα1-Me] | 0.15 | 0.16 |
| CO[C@@H]1O[C@H](CO)[C@@H](O)[C@H](O)[C@@H]1O [Manβ1-Me] | 1.46 | 2.74 |
| OC[C@H]1O[C@@H](O[C@H]2[C@H](O)[C@@H](O)C(O)O[C@@H]2CO)[C@H](O)[C@@H](O)[C@H]1O (stereo partly drawn) [Galβ1-4Glc] | 0.42 | 3.08 |
| Cc1cc(=O)oc2cc(O[C@@H]3O[C@H](CO)[C@H](O)[C@H](O)[C@H]3O)ccc12 [Galβ1-MeUmb] | 0.19 | 0.00 |
| OCC1OC(OCC2OC(OCC3OC(O)C(O)C(OC4OC(CO)C(O)C(O)C4O)C3O)C(O)C(OC3OC(CO)C(O)C(O)C3O)C2O)C(O)C(O)C1O (stereo not drawn) [Manα1-3(Manα1-6)Manα1-6(Manα1-3)Man] | 0.09 | 0.45 |
| Cc1cc(=O)oc2cc(O[C@H]3O[C@H](CO)[C@@H](O)[C@H](O)[C@@H]3O)ccc12 [Manα1-MeUmb] | 0.11 | 0.17 |
| Cc1cc(=O)oc2cc(O[C@@H]3O[C@@H](C)[C@@H](O)[C@@H](O)[C@@H]3O)ccc12 [L-Fucα1-MeUmb] | 0.00 | 0.00 |
| Galβ1-4GlcNAc | 0.03 | 0.12 |
| C[C@@H]1O[C@H](Oc2ccc([N+](=O)[O-])cc2)[C@@H](O)[C@H](O)[C@@H]1O [L-Fucβ1-pNph] | 0.01 | 0.02 |
